Results as given in patent US8198462B2, “Dendritic photoactive compound comprising oxime ester and method for preparing the same” (LG Chem, Ltd., priority 2007, dated 2012).
Each block holds one compound with its values, some of them ahead of it.

Experiment: Solubility of the photoinitiator in frequently used organic solvents
Format: physicochemical
Conditions: for Solubility in 3-MBA: solvent 3-methoxybutyl acetate (MBA); for Solubility in CH: solvent cyclohexanone (CH); for Solubility in DPM: solvent dipropylene glycol methyl ether (DPM); for Solubility in EEP: solvent ethyl-3-ethoxy propionate (EEP); for Solubility in PGMEA: solvent propylene glycol methyl ether acetate (PGMEA)
Description: For the comparison of the solubility of the compound that comprises oxime ester, in conjunction with Irgacure OXE-02 (Comparative Example 1) of Ciba Specialty Chemical, the solubilities of the compounds of Examples were measured in respects to the solvents that were frequently used, such as propylene glycol methyl ether acetate (PGMEA), dipropylene glycol methyl ether (DPM), 3-methoxybutyl acetate (MBA), ethyl-3-ethoxy propionate (EEP), and cyclohexanone (CH). The solubility was measured on the basis of how many grams of the photoinitiator were dissolved in 100 g of the solvent, and the results are described in the following Table 1.

SMILES: CCn1c2ccc(C(=O)c3ccccc3C)cc2c2cc(/C(C)=N/OC(C)=O)ccc21 [Comparative Example 1, reference compound]
Solubility in 3-MBA: 10 grams in 100 g of the solvent
Solubility in CH: 40 grams in 100 g of the solvent
Solubility in DPM: 5 grams in 100 g of the solvent
Solubility in EEP: 10 grams in 100 g of the solvent
Solubility in PGMEA: 12 grams in 100 g of the solvent

SMILES: CC(=O)O/N=C(\CC(c1ccc(C(C/C(=N\OC(C)=O)c2ccccc2)N(OC(C)=O)C(C)=O)cc1)N(OC(C)=O)C(C)=O)c1ccccc1 (stereo not drawn) [Example 1]
Solubility in 3-MBA: 50 or more grams in 100 g of the solvent
Solubility in CH: 100 or more grams in 100 g of the solvent
Solubility in DPM: 50 or more grams in 100 g of the solvent
Solubility in EEP: 50 or more grams in 100 g of the solvent
Solubility in PGMEA: 100 or more grams in 100 g of the solvent

SMILES: CSc1ccc(C(C/C(=N\OC(C)=O)c2ccc(/C(CC(c3ccc(SC)cc3)N(OC(C)=O)C(C)=O)=N/OC(C)=O)cc2)N(OC(C)=O)C(C)=O)cc1 (stereo not drawn) [Example 2]
Solubility in 3-MBA: 50 or more grams in 100 g of the solvent
Solubility in CH: 100 or more grams in 100 g of the solvent
Solubility in DPM: 50 or more grams in 100 g of the solvent
Solubility in EEP: 50 or more grams in 100 g of the solvent
Solubility in PGMEA: 100 or more grams in 100 g of the solvent

More lines, main results first:

Solubility in 3-MBA: 50 or more grams in 100 g of the solvent
Solubility in DPM: 50 or more grams in 100 g of the solvent
Solubility in EEP: 50 or more grams in 100 g of the solvent
SMILES: CCn1c2ccc(/C(CC(c3ccccc3)N(OC(C)=O)C(C)=O)=N/OC(C)=O)cc2c2cc(/C(CC(c3ccccc3)N(OC(C)=O)C(C)=O)=N/OC(C)=O)ccc21 (stereo not drawn) [Example 3]
Solubility in CH: 100 or more grams in 100 g of the solvent
Solubility in PGMEA: 100 or more grams in 100 g of the solvent

Solubility in 3-MBA: 30 grams in 100 g of the solvent
Solubility in DPM: 25 grams in 100 g of the solvent
Solubility in EEP: 30 grams in 100 g of the solvent
SMILES: CCn1c2ccc(/C(CC(c3cccs3)N(OC(C)=O)C(C)=O)=N/OC(C)=O)cc2c2cc(/C(CC(c3cccs3)N(OC(C)=O)C(C)=O)=N/OC(C)=O)ccc21 (stereo not drawn) [Example 4]
Solubility in CH: 100 or more grams in 100 g of the solvent
Solubility in PGMEA: 100 or more grams in 100 g of the solvent

Solubility in 3-MBA: 50 or more grams in 100 g of the solvent
Solubility in DPM: 50 or more grams in 100 g of the solvent
Solubility in EEP: 50 or more grams in 100 g of the solvent
SMILES: CCn1c2ccc(/C(CC(c3ccc(SC)cc3)N(OC(C)=O)C(C)=O)=N/OC(C)=O)cc2c2cc(/C(CC(c3ccc(SC)cc3)N(OC(C)=O)C(C)=O)=N/OC(C)=O)ccc21 (stereo not drawn) [Example 5]
Solubility in CH: 100 or more grams in 100 g of the solvent
Solubility in PGMEA: 100 or more grams in 100 g of the solvent
